Laboratory results taken from US20230270723A1, “GLUCOKINASE ACTIVATOR FOR TREATING DIABETES WITH HEPATIC IMPAIRMENT” (HUA Medicine (Shanghai) Ltd., priority 2020, published 2023).
Where two headings read alike, the source gives them in different places.

Tests used:
[1] = Phase I single oral dose pharmacokinetic study of dorzagliatin in subjects with mild or moderate hepatic impairment and healthy subjects (plasma, LC-MS/MS, non-compartmental); format: in vivo, human; settings: for AUC(0-inf) / AUC(0-t) / Cmax / half-life / Vd/F / Tmax: both sexes, human, plasma, po, 25 mg; for Vd/F: read-out: Vz/F; for Tmax: median
Description: This phase I study is to access the pharmacokinetics and safety of a single dose of dorzagliatin in subjects with mild or moderate hepatic impairment, and heathy subjects. […] The eligible subjects of Groups A and B are matched closely with the healthy subjects of Group C as to their sexes, ages (±5 yrs), and BMIs (±15%).
on Day −2 or −1, eligible subjects are admitted to a clinical research center (CRC). […], the subjects have no additional food after a standard dinner for at least 10 h. In the morning of Day 1, the subjects each receive dorzagliatin (25 mg) orally with empty stomach. One hour later, the subjects have a standardized breakfast. Blood samples are collected at the following time points: within 60 min pre-dose; and at 0.25, 0.5, 1, 1.5, 2, 2.5, 3, 4, 6, 8, 12, 24, 36, 48, and 72 h post-dose. The samples are analyzed using LC-MS/MS. The plasma concentration-time data for dorzagliatin are analyzed using a non-compartmental model to obtain PK parameters, including Cmax, AUClast, and AUCinf. An ANOVA analysis is performed on the data between Group C and Groups A and B.
Study design: This study was designed to evaluate the PK and safety of a single oral dose of dorzagliatin 25 mg in subjects with hepatic impairment compared with matched healthy subjects using an open label, single-center, parallel study design. The study population (as shown in Table 1) consisted of subjects with mild (group A) and moderate (group B) hepatic impairment and healthy subjects (group C) matched for sex, mean age, and mean BMI. The number of subjects who completed the study in each group was not less than 8, both male and female, and no less than 3 subjects of a single sex in each group.
(§1) Eligible subjects were admitted to the Phase 1 study ward on either Day −2 or Day −1 to complete the baseline examination, and re-confirmed the inclusion/exclusion criteria by the investigator and fed a standardized meal after admission. Subjects were fasted at least 10 hours overnight while water was not deprived after the standardized dinner on Day −1, and received a single dose of dorzagliatin 25 mg (25 mg/tablet, 1 tablet) with 240 mL of warm water on the morning of Day 1. Subjects should start the standardized breakfast about 1 hour after administration and complete the meal within 30 minutes. Blood samples for PK and plasma protein binding (PPB) analyses were collected at specified time points within 1 hour pre-dose through 72 hours post-dose. The corresponding safety indicators at preset time points were detected for safety assessment.
(§2) Pharmacokinetic Evaluation • PK blood sampling time: Within 1 hour pre-dose and 0.25, 0.5, 1, 1.5, 2, 2.5, 3, 4, 6, 8, 12, 24, 36, 48 and 72 hours post-dose of dorzagliatin on Day 1. • PPB blood sampling time: Within 1 hour pre-dose and 1 hour post-dose of dorzagliatin. • Bioanalytical method: dorzagliatin in plasma was analyzed using a validated method of liquid chromatography-tandem mass spectrometry (LC-MS/MS). • PK parameters. Primary PK endpoint: Cmax, AUClast, AUCinf; Secondary PK endpoint (if applicable): Cmax,u, AUClast,u, AUCinf,u, Tmax, T1/2, CL/F, Vz/F, fu.

[2] = Plasma protein binding (PPB) analysis, free drug percentage (fu); format: in vitro ADME; settings: human, oral, 25 mg
Description: as §1, §2

[3] = Safety evaluation (adverse events) after single oral dose of dorzagliatin 25 mg; format: in vivo, human
Description: Safety Evaluation • Physical examination: Evaluated at screening, baseline, Day 2, Day 3, discharge examination on Day 4. • Vital signs: Evaluated at screening, baseline, 24 and 48 hours post-dose, discharge examination on Day 4. • 12-lead ECG: Evaluated at screening, baseline, 24 hours and 48 hours post-dose, discharge examination on Day 4. Test once at each time point. • Hematology, blood biochemistry and urinalysis: Evaluated at screening, baseline, 24 hours, 48 hours and 72 hours post-dose. • Adverse events (AEs): All the subjects are observed for any AEs occurring from the signing of the ICF to the end of study. The clinical manifestations, severity, occurrence time, end time (if applicable), treatment measure, outcome and other information of each AE are recorded, and the correlation between an AE and the study drugs is judged.

[4] = single oral dose 25 mg, healthy group, arithmetic mean
[5] = single oral dose 25 mg, mild hepatic impairment group, arithmetic mean
[6] = single oral dose 25 mg, moderate hepatic impairment group, arithmetic mean
[7] = moderate hepatic impairment group

CC(C)C[C@@H](C(=O)Nc1ccn(C[C@@H](O)CO)n1)N1CC(Oc2ccccc2Cl)=CC1=O [dorzagliatin, (S)-2-(4-(2-chlorophenoxy)-2-oxo-2,5-dihydro-1H-pyrrol-1-yl)-N-(1-((R)-2,3-dihydroxypropyl)-1H-pyrazol-3-yl)-4-methylpentanamide]
AUC(0-inf) ([1]; free drug, single oral dose 25 mg, healthy group, arithmetic mean, read-out: AUCinf,u): 123 ng·h/mL | AUC(0-t) ([1]; free drug, single oral dose 25 mg, healthy group, arithmetic mean, read-out: AUClast,u): 122 ng·h/mL | AUC(0-inf) ([1]; free drug, single oral dose 25 mg, healthy group, read-out: AUCinf,u, geometric least squares mean): 119 ng·h/mL | AUC(0-t) ([1]; free drug, single oral dose 25 mg, healthy group, read-out: AUClast,u, geometric least squares mean): 118 ng·h/mL | AUC(0-inf) ([1]; free drug, single oral dose 25 mg, mild hepatic impairment group (N=7), arithmetic mean, read-out: AUCinf,u): 170 ng·h/mL | AUC(0-t) ([1]; free drug, single oral dose 25 mg, mild hepatic impairment group (N=7), arithmetic mean, read-out: AUClast,u): 169 ng·h/mL | AUC(0-inf) ([1]; free drug, single oral dose 25 mg, moderate hepatic impairment group, arithmetic mean, read-out: AUCinf,u): 287 ng·h/mL | AUC(0-t) ([1]; free drug, single oral dose 25 mg, moderate hepatic impairment group, arithmetic mean, read-out: AUClast,u): 284 ng·h/mL | AUC(0-inf) ([1]; free drug, single oral dose 25 mg, moderate hepatic impairment group, read-out: AUCinf,u, geometric least squares mean): 282 ng·h/mL | AUC(0-t) ([1]; free drug, single oral dose 25 mg, moderate hepatic impairment group, read-out: AUClast,u, geometric least squares mean): 280 ng·h/mL | Cmax ([1]; single oral dose 25 mg, fasted, healthy group, arithmetic mean, read-out: Cmax): 325 ng/mL | Cmax ([1]; single oral dose 25 mg, fasted, mild hepatic impairment group (Child-Pugh 5-6), arithmetic mean, read-out: Cmax): 382 ng/mL | Cmax ([1]; single oral dose 25 mg, fasted, moderate hepatic impairment group (Child-Pugh 7-9), arithmetic mean, read-out: Cmax): 370 ng/mL | half-life [1, 4]: 6.22 h | AUC(0-inf) ([1]; single oral dose 25 mg, healthy group, arithmetic mean, read-out: AUCinf): 1910 ng·h/mL | AUC(0-t) ([1]; single oral dose 25 mg, healthy group, arithmetic mean, read-out: AUClast): 1890 ng·h/mL | Vd/F [1, 4]: 122 L | Tmax ([1]; single oral dose 25 mg, healthy group): 1.75 h | AUC(0-inf) ([1]; single oral dose 25 mg, healthy group, read-out: AUCinf, geometric least squares mean): 1870 ng·h/mL | AUC(0-t) ([1]; single oral dose 25 mg, healthy group, read-out: AUClast, geometric least squares mean): 1840 ng·h/mL | Cmax ([1]; single oral dose 25 mg, healthy group, read-out: Cmax, geometric least squares mean): 307 ng/mL | half-life [1, 5]: 6.25 h | AUC(0-inf) ([1]; single oral dose 25 mg, mild hepatic impairment group, arithmetic mean, read-out: AUCinf): 2260 ng·h/mL | AUC(0-t) ([1]; single oral dose 25 mg, mild hepatic impairment group, arithmetic mean, read-out: AUClast): 2240 ng·h/mL | Vd/F [1, 5]: 106 L | Tmax ([1]; single oral dose 25 mg, mild hepatic impairment group): 1.5 h | AUC(0-inf) ([1]; single oral dose 25 mg, mild hepatic impairment group, read-out: AUCinf, geometric least squares mean): 2190 ng·h/mL | AUC(0-t) ([1]; single oral dose 25 mg, mild hepatic impairment group, read-out: AUClast, geometric least squares mean): 2170 ng·h/mL | Cmax ([1]; single oral dose 25 mg, mild hepatic impairment group, read-out: Cmax, geometric least squares mean): 370 ng/mL | half-life [1, 6]: 8.04 h | AUC(0-inf) ([1]; single oral dose 25 mg, moderate hepatic impairment group, arithmetic mean, read-out: AUCinf): 3450 ng·h/mL | AUC(0-t) ([1]; single oral dose 25 mg, moderate hepatic impairment group, arithmetic mean, read-out: AUClast): 3410 ng·h/mL | Vd/F [1, 6]: 85.2 L | AUC(0-t) ([1]; single oral dose 25 mg, moderate hepatic impairment group, mean, read-out: AUClast): 3410 ng·h/mL | Tmax ([1]; single oral dose 25 mg, moderate hepatic impairment group): 1.5 h | AUC(0-inf) ([1]; single oral dose 25 mg, moderate hepatic impairment group, read-out: AUCinf, geometric least squares mean): 3410 ng·h/mL | AUC(0-t) ([1]; single oral dose 25 mg, moderate hepatic impairment group, read-out: AUClast, geometric least squares mean): 3370 ng·h/mL | Cmax ([1]; single oral dose 25 mg, moderate hepatic impairment group, read-out: Cmax, geometric least squares mean): 362 ng/mL | Cmax,u, geometric least squares mean ([1]; free drug, single oral dose 25 mg, healthy group): 19.7 ng/mL | Cmax,u ([1]; free drug, single oral dose 25 mg, healthy group, arithmetic mean): 21.0 ng/mL | Cmax,u ([1]; free drug, single oral dose 25 mg, mild hepatic impairment group (N=7), arithmetic mean): 28.8 ng/mL | Cmax,u, geometric least squares mean ([1]; free drug, single oral dose 25 mg, moderate hepatic impairment group): 30.0 ng/mL | Cmax,u ([1]; free drug, single oral dose 25 mg, moderate hepatic impairment group, arithmetic mean): 30.7 ng/mL | increase of geometric mean of AUCinf compared with healthy subjects ([1]; mild hepatic impairment group): ~17% | increase of geometric mean of AUClast compared with healthy subjects ([1]; mild hepatic impairment group): approximately 18% | increase of geometric mean of Cmax compared with healthy subjects ([1]; mild hepatic impairment group): approximately 20% | effect of mild hepatic impairment on clearance and exposure level ([1]; mild hepatic impairment vs healthy subjects): no significant effect | increase of geometric mean of AUCinf compared with healthy subjects [1, 7]: ~83% | increase of geometric mean of AUClast compared with healthy subjects [1, 7]: ~83% | increase of geometric mean of Cmax compared with healthy subjects [1, 7]: approximately 18% | increase of geometric mean of free AUCinf compared with the healthy group [1, 7]: ~137% | increase of geometric mean of free AUClast compared with the healthy group [1, 7]: ~137% | clearance and exposure level in moderate hepatic impairment ([1]; moderate hepatic impairment vs healthy subjects): the drug clearance was decreased and the exposure level was increased | increase of AUC of free drug compared with healthy subjects ([1]; moderate hepatic impairment, conclusion, AUC not further specified): ~137% | absorption after oral administration ([1]; single oral dose 25 mg): rapidly absorbed | CL/F [1, 4]: 13.7 L/h | CL/F [1, 5]: 11.8 L/h | CL/F [1, 6]: 7.43 L/h | fraction unbound ([2]; free drug percentage in plasma, healthy group, arithmetic mean, read-out: fu): 0.0646 | fraction unbound ([2]; free drug percentage in plasma, mild hepatic impairment group (N=7), arithmetic mean, read-out: fu): 0.0719 | fraction unbound ([2]; free drug percentage in plasma, moderate hepatic impairment group, arithmetic mean, read-out: fu): 0.0832 | fraction unbound ([2]; healthy group, read-out: free drug percentage (fu), geometric mean): 0.0639 | fraction unbound ([2]; mild hepatic impairment group, read-out: free drug percentage (fu), geometric mean): 0.0712 | fraction unbound ([2]; moderate hepatic impairment group, read-out: free drug percentage (fu), geometric mean): 0.0829 | number of AEs ([3]; all subjects): 20 | number of TEAEs ([3]; all subjects): 18 | number of TEAEs considered possibly related to the study drug ([3]; all subjects): 10 | subjects with TEAEs considered possibly related to the study drug ([3]; all subjects): 25.0% | SAEs, death, or significant TEAEs ([3]; all subjects, during the study): no SAEs, death, or significant TEAEs | subjects who experienced TEAEs ([3]; all subjects, mild in most cases): 33.3% | subjects who experienced AEs ([3]; all subjects, single oral dose 25 mg): 33.3% | subjects who experienced AEs ([3]; healthy group): No subjects | number of AEs ([3]; mild hepatic impairment group): 13 | number of TEAEs considered possibly related to the study drug ([3]; mild hepatic impairment group): 8 | subjects who experienced AEs ([3]; mild hepatic impairment group): 62.5% | subjects with TEAEs considered possibly related to the study drug ([3]; mild hepatic impairment group): 50.0% | number of AEs [3, 7]: 7 | number of TEAEs considered possibly related to the study drug [3, 7]: 2 | subjects who experienced AEs [3, 7]: 37.5% | subjects with TEAEs considered possibly related to the study drug [3, 7]: 25.0% | safety and tolerability ([3]; single oral dose, subjects with mild and moderate hepatic impairment): safe and well tolerated
